These results are taken from ChEMBL document CHEMBL2417377, “Hit-to-lead optimization and kinase selectivity of imidazo[1,2-a]quinoxalin-4-amine derived JNK1 inhibitors” (Bioorg Med Chem Lett, 2013).

Assay [1] deals with Dual specificity mitogen-activated protein kinase kinase 1 (Homo sapiens) (UniProt Q02750). Nature of the assay: Inhibition of MAP2K1 in human PC3 cell lysates at 10 uM using desthiobiotin-tagged ATP probe AX9989 followed by trypsinization by LC/MS analysis. Conditions: PC-3.
Assay [2] addresses T1, Phosphorylase b kinase gamma catalytic chain, liver/testis isoform (Homo sapiens) (UniProt P15735).
T1 sequence (whole entry): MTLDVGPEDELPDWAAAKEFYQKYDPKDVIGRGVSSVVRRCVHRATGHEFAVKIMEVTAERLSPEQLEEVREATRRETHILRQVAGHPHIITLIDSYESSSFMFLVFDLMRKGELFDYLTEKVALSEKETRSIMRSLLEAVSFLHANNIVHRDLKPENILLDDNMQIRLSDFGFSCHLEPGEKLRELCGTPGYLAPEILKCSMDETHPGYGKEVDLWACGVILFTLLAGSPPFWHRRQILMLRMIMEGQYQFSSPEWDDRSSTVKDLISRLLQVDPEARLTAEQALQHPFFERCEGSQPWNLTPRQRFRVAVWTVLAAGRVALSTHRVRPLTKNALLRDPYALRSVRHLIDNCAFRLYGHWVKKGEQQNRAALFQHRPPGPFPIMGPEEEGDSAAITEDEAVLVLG
As to the kind of experiment: Inhibition of PHKgamma2 in human PC3 cell lysates at 10 uM using desthiobiotin-tagged ATP probe AX9989 followed by trypsinization by LC/MS analysis. Conditions: PC-3.

Assay [3] concerns the target Glycogen synthase kinase-3 beta (Homo sapiens) (UniProt P49841). Nature of the assay: Inhibition of GSK3beta in human PC3 cell lysates at 10 uM using desthiobiotin-tagged ATP probe AX9989 followed by trypsinization by LC/MS analysis. Conditions: PC-3.
Assay [4] has as its target Serine/threonine-protein kinase 38-like (Homo sapiens) (UniProt Q9Y2H1). As to the kind of experiment: Inhibition of NDR2 in human PC3 cell lysates at 10 uM using desthiobiotin-tagged ATP probe AX9989 followed by trypsinization by LC/MS analysis. Conditions: PC-3.
The target of assay [5] is T2, Dual specificity mitogen-activated protein kinase kinase 4 (Homo sapiens) (UniProt P45985).
T2 sequence (whole entry): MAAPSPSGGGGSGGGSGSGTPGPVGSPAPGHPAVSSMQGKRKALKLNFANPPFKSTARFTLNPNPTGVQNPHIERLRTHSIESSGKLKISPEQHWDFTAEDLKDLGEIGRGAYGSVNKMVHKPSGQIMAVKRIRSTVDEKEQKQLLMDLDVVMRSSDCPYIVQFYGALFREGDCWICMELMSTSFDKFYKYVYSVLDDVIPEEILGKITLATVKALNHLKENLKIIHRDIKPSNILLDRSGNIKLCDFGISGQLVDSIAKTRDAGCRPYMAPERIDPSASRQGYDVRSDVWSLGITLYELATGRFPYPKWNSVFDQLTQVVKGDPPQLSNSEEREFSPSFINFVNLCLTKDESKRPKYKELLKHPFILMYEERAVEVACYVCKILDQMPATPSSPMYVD
As to the kind of experiment: Inhibition of MAP2K4 in human PC3 cell lysates at 10 uM using desthiobiotin-tagged ATP probe AX9989 followed by trypsinization by LC/MS analysis. Conditions: PC-3.

Assay [6] concerns the target T3, Serine/threonine-protein kinase STK11 (Homo sapiens) (UniProt Q15831).
T3 sequence (whole entry): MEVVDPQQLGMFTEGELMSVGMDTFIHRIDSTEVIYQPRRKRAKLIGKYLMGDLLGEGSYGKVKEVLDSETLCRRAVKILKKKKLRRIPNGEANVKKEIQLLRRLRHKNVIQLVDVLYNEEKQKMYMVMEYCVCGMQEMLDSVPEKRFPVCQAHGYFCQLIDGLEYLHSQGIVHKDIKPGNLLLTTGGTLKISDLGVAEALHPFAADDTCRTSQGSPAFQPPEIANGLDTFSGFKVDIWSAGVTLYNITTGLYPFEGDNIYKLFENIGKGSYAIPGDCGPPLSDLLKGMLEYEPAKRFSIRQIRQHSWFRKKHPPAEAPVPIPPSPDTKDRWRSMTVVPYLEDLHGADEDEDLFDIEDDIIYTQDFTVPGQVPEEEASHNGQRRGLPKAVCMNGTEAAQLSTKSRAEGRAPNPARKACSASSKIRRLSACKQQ
As to the kind of experiment: Inhibition of LKB1 in human PC3 cell lysates at 10 uM using desthiobiotin-tagged ATP probe AX9989 followed by trypsinization by LC/MS analysis. Conditions: PC-3.

In assay [7] the target is T4, Serine/threonine-protein kinase tousled-like 1 (Homo sapiens) (UniProt Q9UKI8).
T4 sequence (whole entry): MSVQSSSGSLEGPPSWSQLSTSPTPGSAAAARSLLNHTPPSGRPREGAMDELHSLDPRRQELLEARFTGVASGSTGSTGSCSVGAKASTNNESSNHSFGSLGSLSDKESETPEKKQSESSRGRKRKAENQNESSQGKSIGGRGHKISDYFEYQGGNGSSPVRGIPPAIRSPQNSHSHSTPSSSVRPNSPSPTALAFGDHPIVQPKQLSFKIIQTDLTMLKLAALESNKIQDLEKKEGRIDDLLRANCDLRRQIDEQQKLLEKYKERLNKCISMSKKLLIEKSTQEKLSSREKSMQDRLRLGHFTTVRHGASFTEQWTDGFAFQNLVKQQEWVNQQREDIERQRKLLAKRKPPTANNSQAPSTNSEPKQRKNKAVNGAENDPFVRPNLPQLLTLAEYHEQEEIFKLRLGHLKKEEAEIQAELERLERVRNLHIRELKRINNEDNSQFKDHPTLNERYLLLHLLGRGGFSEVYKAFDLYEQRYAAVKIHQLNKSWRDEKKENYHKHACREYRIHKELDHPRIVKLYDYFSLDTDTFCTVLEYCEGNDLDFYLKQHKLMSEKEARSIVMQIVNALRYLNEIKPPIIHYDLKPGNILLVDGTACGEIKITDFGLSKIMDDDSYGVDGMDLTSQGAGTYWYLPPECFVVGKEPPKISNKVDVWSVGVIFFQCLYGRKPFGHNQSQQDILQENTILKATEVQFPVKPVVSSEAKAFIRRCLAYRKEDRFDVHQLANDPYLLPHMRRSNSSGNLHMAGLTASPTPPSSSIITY
Nature of the assay: Inhibition of TLK1 in human PC3 cell lysates at 10 uM using desthiobiotin-tagged ATP probe AX9989 followed by trypsinization by LC/MS analysis. Conditions: PC-3.

For a further assay, the system named is PC-3. As to the kind of experiment: Inhibition of ANPbeta in human PC3 cell lysates at 10 uM using desthiobiotin-tagged ATP probe AX9989 followed by trypsinization by LC/MS analysis. It is filed as cell-free.
The target of assay [8] is PI4KA/PI4KAP2 (Homo sapiens) (UniProt P42356+A4QPH2). As to the kind of experiment: Inhibition of PI4KA/PI4KAP2 in human PC3 cell lysates at 10 uM using desthiobiotin-tagged ATP probe AX9989 followed by trypsinization by LC/MS analysis. The format is protein-complex assay. Conditions: PC-3.
For assay [9], the target named is Cyclin-dependent kinase 11B (Homo sapiens) (UniProt P21127). As to the kind of experiment: Inhibition of CDK11 in human PC3 cell lysates at 10 uM using desthiobiotin-tagged ATP probe AX9989 followed by trypsinization by LC/MS analysis. Conditions: PC-3.
Assay [10] concerns the target Serine/threonine-protein kinase Nek6 (Homo sapiens) (UniProt Q9HC98). Nature of the assay: Inhibition of NEK6 in human PC3 cell lysates at 10 uM using desthiobiotin-tagged ATP probe AX9989 followed by trypsinization by LC/MS analysis. Conditions: PC-3.

Structures are written as SMILES. Some results are limits rather than exact numbers.

By inhibition is commonly meant the percentage by which the read-out fell short of the control. Lower therefore signals a weak effect.

Sequence of Glycogen synthase kinase-3 beta (Homo sapiens) (P49841 whole entry, looked up): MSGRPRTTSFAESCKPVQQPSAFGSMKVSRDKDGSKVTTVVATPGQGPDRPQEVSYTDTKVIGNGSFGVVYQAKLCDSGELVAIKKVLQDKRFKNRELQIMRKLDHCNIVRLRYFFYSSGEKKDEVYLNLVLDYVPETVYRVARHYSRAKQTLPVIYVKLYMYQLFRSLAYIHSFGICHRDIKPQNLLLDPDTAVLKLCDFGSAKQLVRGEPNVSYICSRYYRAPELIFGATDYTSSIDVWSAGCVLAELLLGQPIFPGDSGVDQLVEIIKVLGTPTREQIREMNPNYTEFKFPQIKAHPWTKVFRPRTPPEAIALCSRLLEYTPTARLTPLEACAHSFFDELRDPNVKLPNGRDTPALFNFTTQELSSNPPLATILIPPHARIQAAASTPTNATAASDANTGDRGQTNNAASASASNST
Sequence of Dual specificity mitogen-activated protein kinase kinase 1 (Homo sapiens) (Q02750 whole entry, canonical isoform): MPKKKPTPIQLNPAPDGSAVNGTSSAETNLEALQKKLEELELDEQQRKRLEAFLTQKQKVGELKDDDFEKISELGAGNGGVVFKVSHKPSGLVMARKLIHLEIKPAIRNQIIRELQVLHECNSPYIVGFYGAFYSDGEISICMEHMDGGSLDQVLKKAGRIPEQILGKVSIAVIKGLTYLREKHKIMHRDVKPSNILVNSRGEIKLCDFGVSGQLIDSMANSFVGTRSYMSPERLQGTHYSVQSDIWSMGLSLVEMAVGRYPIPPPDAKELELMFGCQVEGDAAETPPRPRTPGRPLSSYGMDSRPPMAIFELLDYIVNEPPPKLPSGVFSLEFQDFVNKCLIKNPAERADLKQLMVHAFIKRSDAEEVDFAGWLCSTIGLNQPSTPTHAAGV
Sequence of PI4KA/PI4KAP2 (Homo sapiens) (A4QPH2 whole entry, looked up): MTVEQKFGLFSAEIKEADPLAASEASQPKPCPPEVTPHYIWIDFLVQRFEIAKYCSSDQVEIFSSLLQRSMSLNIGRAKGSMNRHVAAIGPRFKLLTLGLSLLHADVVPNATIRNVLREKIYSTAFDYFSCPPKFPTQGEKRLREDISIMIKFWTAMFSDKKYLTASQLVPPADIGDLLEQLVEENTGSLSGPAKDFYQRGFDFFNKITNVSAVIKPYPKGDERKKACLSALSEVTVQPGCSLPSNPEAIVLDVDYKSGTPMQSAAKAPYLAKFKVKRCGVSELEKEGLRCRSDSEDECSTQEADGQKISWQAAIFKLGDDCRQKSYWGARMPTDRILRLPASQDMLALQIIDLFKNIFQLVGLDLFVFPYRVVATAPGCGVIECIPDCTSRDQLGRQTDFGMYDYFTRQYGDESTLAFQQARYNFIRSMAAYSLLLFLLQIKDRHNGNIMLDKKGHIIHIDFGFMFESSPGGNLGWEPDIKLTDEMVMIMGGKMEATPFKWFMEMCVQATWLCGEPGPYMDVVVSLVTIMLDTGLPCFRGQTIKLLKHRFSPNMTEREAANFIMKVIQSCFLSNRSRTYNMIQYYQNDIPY
Sequence of PI4KA/PI4KAP2 (Homo sapiens) (P42356 whole entry, looked up): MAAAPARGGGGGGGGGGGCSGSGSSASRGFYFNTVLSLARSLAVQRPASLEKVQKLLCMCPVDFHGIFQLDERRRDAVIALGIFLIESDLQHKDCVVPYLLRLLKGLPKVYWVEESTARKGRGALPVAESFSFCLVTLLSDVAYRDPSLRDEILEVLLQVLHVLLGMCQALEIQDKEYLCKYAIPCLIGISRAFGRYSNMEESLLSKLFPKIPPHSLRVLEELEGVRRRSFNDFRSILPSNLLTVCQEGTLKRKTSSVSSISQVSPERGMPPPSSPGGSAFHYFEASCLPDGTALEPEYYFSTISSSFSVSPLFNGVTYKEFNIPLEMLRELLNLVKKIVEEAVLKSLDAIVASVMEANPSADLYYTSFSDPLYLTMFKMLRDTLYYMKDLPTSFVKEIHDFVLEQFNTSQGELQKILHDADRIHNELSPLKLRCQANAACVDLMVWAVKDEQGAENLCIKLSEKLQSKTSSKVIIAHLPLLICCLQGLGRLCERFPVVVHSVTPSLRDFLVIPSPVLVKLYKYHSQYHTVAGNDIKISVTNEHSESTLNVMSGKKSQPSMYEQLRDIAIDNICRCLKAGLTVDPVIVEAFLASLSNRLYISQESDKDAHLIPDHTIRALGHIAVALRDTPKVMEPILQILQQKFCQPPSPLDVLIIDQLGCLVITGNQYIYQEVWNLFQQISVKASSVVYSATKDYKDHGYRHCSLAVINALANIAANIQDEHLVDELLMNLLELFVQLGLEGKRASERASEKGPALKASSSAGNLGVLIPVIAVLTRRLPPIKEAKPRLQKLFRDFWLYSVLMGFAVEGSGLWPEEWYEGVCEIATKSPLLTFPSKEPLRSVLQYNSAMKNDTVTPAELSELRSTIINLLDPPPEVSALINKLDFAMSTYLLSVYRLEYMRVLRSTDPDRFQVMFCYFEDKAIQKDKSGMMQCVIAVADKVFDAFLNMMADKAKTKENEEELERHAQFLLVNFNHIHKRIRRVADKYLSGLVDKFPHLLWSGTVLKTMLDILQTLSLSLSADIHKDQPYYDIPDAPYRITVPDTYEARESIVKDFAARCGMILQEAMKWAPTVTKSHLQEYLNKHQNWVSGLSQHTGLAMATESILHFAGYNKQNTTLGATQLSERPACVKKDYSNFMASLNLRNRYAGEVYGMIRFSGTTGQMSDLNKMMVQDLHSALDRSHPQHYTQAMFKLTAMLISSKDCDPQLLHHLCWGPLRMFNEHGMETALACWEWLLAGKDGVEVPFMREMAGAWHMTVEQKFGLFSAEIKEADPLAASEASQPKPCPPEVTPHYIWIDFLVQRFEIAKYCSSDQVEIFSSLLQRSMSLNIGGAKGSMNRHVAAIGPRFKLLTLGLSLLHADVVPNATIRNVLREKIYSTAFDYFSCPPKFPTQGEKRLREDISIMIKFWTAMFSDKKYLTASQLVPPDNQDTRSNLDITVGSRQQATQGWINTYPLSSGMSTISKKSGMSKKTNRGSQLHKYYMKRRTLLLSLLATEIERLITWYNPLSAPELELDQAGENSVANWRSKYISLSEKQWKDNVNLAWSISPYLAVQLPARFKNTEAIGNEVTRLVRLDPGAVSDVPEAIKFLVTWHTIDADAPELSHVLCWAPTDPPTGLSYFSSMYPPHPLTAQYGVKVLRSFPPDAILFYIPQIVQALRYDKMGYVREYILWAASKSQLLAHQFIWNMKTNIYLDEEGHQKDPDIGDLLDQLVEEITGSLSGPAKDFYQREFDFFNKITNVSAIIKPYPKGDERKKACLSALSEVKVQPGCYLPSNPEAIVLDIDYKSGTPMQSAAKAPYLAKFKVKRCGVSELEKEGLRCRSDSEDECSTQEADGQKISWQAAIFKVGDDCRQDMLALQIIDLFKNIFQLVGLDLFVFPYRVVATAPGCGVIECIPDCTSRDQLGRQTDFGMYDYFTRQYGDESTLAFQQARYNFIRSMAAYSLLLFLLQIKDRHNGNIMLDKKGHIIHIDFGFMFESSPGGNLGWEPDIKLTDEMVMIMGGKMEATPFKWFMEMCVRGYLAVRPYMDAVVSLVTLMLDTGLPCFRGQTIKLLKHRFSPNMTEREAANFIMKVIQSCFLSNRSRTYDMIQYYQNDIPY
Sequence of Cyclin-dependent kinase 11B (Homo sapiens) (P21127 whole entry): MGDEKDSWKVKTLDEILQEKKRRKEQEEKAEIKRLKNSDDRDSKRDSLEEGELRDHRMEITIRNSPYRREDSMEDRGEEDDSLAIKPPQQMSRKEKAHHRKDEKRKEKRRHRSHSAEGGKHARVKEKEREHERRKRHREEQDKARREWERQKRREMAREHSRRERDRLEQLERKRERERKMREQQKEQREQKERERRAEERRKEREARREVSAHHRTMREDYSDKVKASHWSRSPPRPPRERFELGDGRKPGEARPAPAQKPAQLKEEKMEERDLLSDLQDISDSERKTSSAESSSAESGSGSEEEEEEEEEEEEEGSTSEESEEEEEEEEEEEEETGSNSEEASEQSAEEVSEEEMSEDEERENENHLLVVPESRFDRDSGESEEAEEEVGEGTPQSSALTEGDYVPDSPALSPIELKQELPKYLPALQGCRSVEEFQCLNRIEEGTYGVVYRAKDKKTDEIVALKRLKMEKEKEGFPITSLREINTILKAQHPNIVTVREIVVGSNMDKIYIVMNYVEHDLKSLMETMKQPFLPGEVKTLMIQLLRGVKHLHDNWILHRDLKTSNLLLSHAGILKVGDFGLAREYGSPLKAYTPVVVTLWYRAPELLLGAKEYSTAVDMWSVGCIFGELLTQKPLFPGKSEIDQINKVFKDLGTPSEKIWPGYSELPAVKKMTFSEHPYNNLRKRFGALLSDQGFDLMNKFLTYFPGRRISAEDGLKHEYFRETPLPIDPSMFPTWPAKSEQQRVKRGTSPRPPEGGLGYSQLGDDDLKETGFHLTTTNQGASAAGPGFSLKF
Sequence of Serine/threonine-protein kinase 38-like (Homo sapiens) (Q9Y2H1 2-464 limits assumed): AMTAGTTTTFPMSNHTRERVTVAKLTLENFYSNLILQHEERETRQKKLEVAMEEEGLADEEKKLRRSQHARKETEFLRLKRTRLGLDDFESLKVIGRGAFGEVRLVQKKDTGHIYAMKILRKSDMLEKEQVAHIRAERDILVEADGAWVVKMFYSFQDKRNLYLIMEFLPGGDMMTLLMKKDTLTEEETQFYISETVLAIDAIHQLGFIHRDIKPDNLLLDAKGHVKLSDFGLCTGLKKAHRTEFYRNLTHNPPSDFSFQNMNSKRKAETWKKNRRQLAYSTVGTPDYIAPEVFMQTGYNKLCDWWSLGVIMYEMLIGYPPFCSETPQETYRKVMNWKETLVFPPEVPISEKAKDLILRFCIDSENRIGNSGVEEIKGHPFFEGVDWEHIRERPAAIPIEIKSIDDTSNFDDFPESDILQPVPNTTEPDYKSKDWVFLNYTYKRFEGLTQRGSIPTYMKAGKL
Sequence of Serine/threonine-protein kinase Nek6 (Homo sapiens) (Q9HC98 whole entry): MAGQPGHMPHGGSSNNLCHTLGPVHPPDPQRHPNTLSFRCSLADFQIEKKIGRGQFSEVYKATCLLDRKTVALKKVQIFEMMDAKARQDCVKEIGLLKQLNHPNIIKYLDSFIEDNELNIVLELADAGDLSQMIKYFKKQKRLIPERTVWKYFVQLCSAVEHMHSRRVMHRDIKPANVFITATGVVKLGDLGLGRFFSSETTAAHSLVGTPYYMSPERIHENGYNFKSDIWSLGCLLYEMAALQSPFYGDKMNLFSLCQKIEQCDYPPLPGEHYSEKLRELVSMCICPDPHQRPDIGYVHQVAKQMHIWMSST

`CC[C@@H](NC(=O)c1ccc2nc(N[C@H]3CC[C@H](O)CC3)c3nccn3c2c1)c1ccccc1`: the inhibition in assay [1], in assay [2], in assay [3], in [4], in assay [5] and in assay [6] was < 35% in each case. The inhibition (in [7]; in the assay with PC-3; in assay [8]; in [9]; in assay [10]) was < 35% in each case.
On to `O=C(N[C@H](CO)c1ccccc1)c1ccc2nc(N[C@H]3CC[C@H](O)CC3)c3nccn3c2c1`, for which the inhibition in assay [1], in assay [2], in assay [3], in assay [4], in assay [5] and in assay [6] was < 35% each time. The inhibition (in [7]; in the assay with PC-3; in assay [8]; in [9]; in [10]) was < 35% each time.
For `O=C(NC1(c2ccccc2)CCC1)c1ccc2nc(N[C@H]3CC[C@H](O)CC3)c3nccn3c2c1`, the inhibition in assay [1], in [2], in [3], in assay [4], in assay [5] and in assay [6] was < 35% throughout. Besides, the inhibition (in assay [7]; with PC-3; in assay [8]; in assay [9]; in [10]) was < 35% in each case.
For the compound `CCC[C@@H](NC(=O)c1ccc2nc(N[C@H]3CC[C@H](O)CC3)c3nccn3c2c1)c1ccccc1`, the inhibition in assay [1], in assay [2], in [3], in assay [4], in assay [5] and in [6] was < 35% in each case. For the same compound, the inhibition (in assay [7]; in the assay on PC-3; in [8]; in assay [9]; in assay [10]) was < 35% throughout.
Take `CC(C)(NC(=O)c1ccc2nc(N[C@H]3CC[C@H](O)CC3)c3nccn3c2c1)c1ccccc1`: the inhibition in assay [1], in [2], in [3], in assay [4], in assay [5] and in [6] was < 35% throughout. In addition, the inhibition (in [7]; in the assay on PC-3; in assay [8]; in assay [9]; in assay [10]) was < 35% throughout.
`O=C(O)c1ccc2nc(N[C@H]3CC[C@H](O)CC3)c3nccn3c2c1`: the inhibition in assay [1] was < 35%; in assay [2], < 35%; in assay [3], 98.6%; in assay [4] it was < 35%; in assay [5] it was < 35%; in assay [6] it was < 35%. For the same compound, the inhibition was < 35% in assay [7]; < 35% with PC-3; 73.1% in assay [8]; < 35% in assay [9]; < 35% in [10].
Turning to `O=C(NC1(c2ccccc2)CC1)c1ccc2nc(N[C@H]3CC[C@H](O)CC3)c3nccn3c2c1`, the inhibition in assay [1], in assay [2], in assay [3], in [4], in assay [5] and in assay [6] was < 35% each time. The inhibition (in assay [7]; in the assay on PC-3; in assay [8]; in [9]; in [10]) was < 35% in each case.
`NC(=O)c1ccc2nc(N[C@H]3CC[C@H](O)CC3)c3nccn3c2c1`: the inhibition is < 35% in [1]; < 35% in [2]; 96% in assay [3]; < 35% in assay [4]; < 35% in [5]; < 35% in assay [6]. In addition, the inhibition (in assay [7]; in the assay on PC-3; in assay [8]; in assay [9]; in assay [10]) was < 35% throughout.
For the compound `C[C@@H](NC(=O)c1ccc2nc(N[C@H]3CC[C@H](O)CC3)c3nccn3c2c1)c1ccccc1`, the inhibition in [1], in assay [2], in assay [3], in assay [4], in assay [5] and in assay [6] was < 35% throughout. For the same compound, the inhibition (in [7]; with PC-3; in assay [8]; in assay [9]; in assay [10]) was < 35% each time.
For `C[C@H](NC(=O)c1ccc2nc(N[C@H]3CC[C@H](O)CC3)c3nccn3c2c1)c1ccccc1`, the inhibition in assay [1], in assay [2], in [3], in assay [4], in assay [5] and in assay [6] was < 35% in each case. The inhibition (in assay [7]; in the assay on PC-3; in assay [8]; in assay [9]; in [10]) was < 35% each time.
